# Details: buffer; pH 7.4; 200.0 µM
row,Compound,solubility kinetic [µg/mL]
1,O=C(Nc1ccc(NC(=O)C2CCCCC2)nc1)c1cccc(F)c1,1.2
2,Cc1cc(C(=O)OCC(=O)NC2CC2)c2ccccc2n1,> 42.6
3,Cc1nc(C(F)(F)F)ccc1C(=O)NN1CCOCC1,> 43.4
4,CCC(C)(C)c1ccc(OC(=O)c2cccnc2Cl)cc1,< 0.7
5,COc1ccccc1CC(=O)O/N=C(\N)c1ccccn1,> 42.8
6,O=C(c1cc2ccccc2o1)N1CCN(c2ncccn2)CC1,> 46.3
7,COc1cc(CCC(=O)NCC2CCCO2)cc(OC)c1OC (stereo not drawn),44
8,COCCNS(=O)(=O)c1ccc(C)c(C)c1C,34.9
9,O=C(O)CCC(=O)Nc1ccc(OCC2CCCO2)cc1 (stereo not drawn),43.8
10,Cc1cccc(C(=O)NCC(=O)OCc2nc(N)nc(Nc3ccccc3C)n2)c1,53.8
11,CCc1noc(C)c1C(=O)OCC(=O)NC(C)c1ccccc1 (stereo not drawn),> 47.5
12,O=C(Cc1cccs1)Nc1ccc(F)cc1F,30
13,CC(C)(C)c1ccccc1OCC(=O)NCc1ccccc1,1.8
14,O=C(CNCc1ccc(F)cc1)Nc1cc(S(=O)(=O)N2CCOCC2)ccc1Cl,8.4
15,CCOc1ccc(C(=O)N2CCc3ccccc32)cc1OCC,40.5
16,CS(=O)(=O)N(CC(=O)NC1CCCC1)C1CCCCC1,> 45.4
17,CCc1ccccc1NC(=O)C1COc2ccccc2O1 (stereo not drawn),33.4
18,Cc1noc(C(=O)Nc2ccc(F)cc2F)c1Cl,13.2
19,CC(=O)c1cccc(NC(=S)NCCc2ccc(F)cc2)c1,> 47.5
20,NC(=O)COC(=O)c1cccnc1Nc1ccccc1F,36.1
21,O=C(c1ccc(F)cc1F)N1CCN(c2ccccn2)CC1,> 45.5
22,COc1ccc2ccccc2c1CN1CCSCC1,21.5
23,O=C(NCCCc1ccccc1)c1cccc(Br)c1,19
24,NC(=O)C1CCN(C(=O)/C(=C/c2ccccc2)NC(=O)c2ccccc2)CC1,53.7

row,Compound,solubility kinetic [µg/mL]
1,CCCCNC(=O)c1cc2cc(CC)ccc2[nH]1,1.9
2,O=C(NCc1cccnc1)/C(=C/c1ccccc1)NC(=O)c1ccccc1,> 53.6
3,CSc1ccc(C(=O)NCC(c2ccco2)N(C)C)cc1[N+](=O)[O-] (stereo not drawn),> 52.4
4,COCCN(C(=O)COC(=O)/C=C/c1cccc(C(F)(F)F)c1)c1c(N)n(CC(C)C)c(=O)[nH]c1=O,5.7
5,COc1cc2c(cc1OC)CN(CC(=O)Nc1ccc(F)cc1)CC2,39
6,COc1ccc(CCNC(=S)N(C)C)cc1OC,> 40.3
7,COCCn1c(SCC(=O)NNC(=O)c2ccccc2)nc2ccccc21,> 57.7
8,O=c1[nH]c(=O)n(-c2cccc(F)c2)c(O)c1/C=C1\C=Nc2ccccc21,2.9
9,COc1cc(/C=C2/SC(=O)NC2=O)ccc1OCc1ccccc1,< 0.7
10,CCc1cccc(CC)c1NC(=O)CSc1nnc(C2CC2)n1C,> 51.7
11,COc1cc2ccccc2cc1C(=O)NC1CCCC1,> 40.4
12,CCc1nonc1NC(=O)c1oc2cc(C)c(Cl)cc2c1C,0.5
13,CC(=O)c1c(C)nc2ccc([N+](=O)[O-])cc2c1-c1ccccc1,21.9
14,CC(C)(C)c1ccc(-c2cnco2)cc1,0.9
15,Nc1ccc(Oc2ccccc2-c2ccccc2)cc1,10.4
16,N#CC1(NC(=O)CN2CCc3ccccc3C2)CCCC1,> 42.5
17,C=CCC1(CC=C)CCCN1Cc1nc(COc2ccccc2)no1,8.3
18,O=C(Nc1ccc2oc(=O)ccc2c1)c1ccccc1[N+](=O)[O-],5.7
19,CC(NC(=O)c1cnccn1)c1ccc(S(N)(=O)=O)cc1 (stereo not drawn),> 46
20,O=C(NCC(=O)N1CCN(Cc2ccccc2)CC1)c1cc(Cl)cc([N+](=O)[O-])c1,> 62.5
21,COC(=O)NC1(C(F)(F)F)C(=O)Nc2c1c(=O)n(C)c(=O)n2C (stereo not drawn),47.3
22,COC(=O)/C(=C\c1ccc(O)cc1)c1nc2ccccc2[nH]1,39.6
23,O=C(NC(=O)c1ccccc1)Nc1ccc(-c2cnco2)cc1,< 0.2
24,Cn1c(=O)[nH]c2ncccc21,> 22.4

row,Compound,solubility kinetic [µg/mL]
1,COc1ccccc1N1CCN(C(=O)CCc2ccccc2)CC1,> 48.7
2,CC(NC(=O)NC(=O)c1ccc(F)cc1)C1CC1 (stereo not drawn),16.2
3,COc1cc(OC)cc(C(=O)NC(c2ccccc2)c2ccccc2)c1,< 0.7
4,Cc1ccc(Cl)c(NC(=O)CSc2cccc[n+]2[O-])c1Cl,> 51.5
5,O=C1CSC(=Nc2cccc([N+](=O)[O-])c2)N1,> 35.6
6,CC(C)C(=O)NCc1cc(-c2ccc(Cl)cc2)no1,3
7,O=C(CC(SCCO)c1ccc([N+](=O)[O-])cc1)c1ccco1 (stereo not drawn),3.7
8,Cn1c(N)c(C(=O)COC(=O)c2ccc(C(F)(F)F)cc2)c(=O)n(C)c1=O,15.2
9,CN(C)CCC(O)c1ccccc1 (stereo not drawn),13.3
10,CSc1ccccc1NC(=O)COC(=O)CCc1ccccc1,27.8
11,COC(=O)c1cc(C(=O)NC(C)(C)CC(C)(C)C)cc([N+](=O)[O-])c1,17.8
12,Cc1ccc(C(=O)NCCNC(=O)c2ccc(C)o2)o1,36.1
13,CC(C)(C)c1ccccc1NC(=S)NC1CCCCC1,2.5
14,Cc1ccc(C)c(NC(=O)C2CC(O)CN2C(=O)Oc2ccccc2)c1 (stereo not drawn),45.4
15,Cc1cccc(NC(=O)c2cc[n+]([O-])cc2)c1C,> 36.3
16,COc1ccc(C(=O)CNc2cccc(F)c2)cc1,4.3
17,O=C(NCCCN1CCCC1=O)c1ccc(NS(=O)(=O)c2ccccc2)cc1,58.8
18,O=C(c1ccc(Cl)cc1)C1CCN(Cc2ccccc2)CC1,> 47.1
19,CC(C)(C)c1ccc(C(=O)NCCCNC(=O)c2cccnc2)cc1,49.2
20,O=C(NNC(=O)c1ccccc1-n1cccc1)c1ccc(F)cc1,> 48.5
21,CC(=O)N1CCN(CC(=O)Nc2cccc(S(=O)(=O)N3CCCCC3)c2)CC1,> 61.3
22,O=C(NCc1ccc(F)cc1)Nc1ccc(Cl)cc1,1.1
23,CCOC(=O)c1sc(=NC(=O)c2ccc(Cl)s2)n(C)c1C,0.5
24,Cc1ccccc1NC(=S)N(CCN(C)C)C(C)c1cccnc1 (stereo not drawn),> 51.4

row,Compound,solubility kinetic [µg/mL]
1,O=C(NC1CCCCCC1)C1CC(=O)N(c2ccc(Cl)cc2)C1 (stereo not drawn),6.3
2,CN(C(=O)COc1cccc(C#N)c1)C1CCS(=O)(=O)C1 (stereo not drawn),> 46.3
3,N#C/C(=C/c1ccc(O)c(O)c1)C(=O)NCc1ccc(Cl)cc1,44.9
4,O=C(O)c1ccc(S(=O)(=O)N2CCN(c3ccccn3)CC2)cc1,> 52.1
5,C[n+]1ccccc1/C=N/O.[Cl-],> 25.9
6,CN(C)c1ccc(C(=O)N2CCNC(=O)C2CC(=O)Nc2ccc(F)cc2)cc1 (stereo not drawn),55.1
7,O=C(NCCCn1ccnc1)c1ccccc1Cl,> 39.6
8,O=C(COC(=O)CCC1CCCC1)Nc1ccccc1OC(F)F,9.7
9,CCc1ccc(NS(=O)(=O)c2ccc3oc(=O)ccc3c2)cc1,41.2
10,COc1ccc(N2CC(C(=O)NC3CCSC3=O)CC2=O)cc1 (stereo not drawn),> 50.2
11,CCC(C(=O)OCC(=O)NC(=O)NC(C)(C)C)c1ccccc1 (stereo not drawn),2
12,CC(C)Oc1c(N2CCOCC2)c(=O)c1=O,> 33.8
13,COc1cc(C(=O)OCCNC(=O)c2cccnc2)cc(OC)c1OC.Cl,> 59.5
14,CCCCN(C)C(=O)c1cc2cc3ccc(OC)cc3nc2o1,14.5
15,Cc1cc(C)nc(SCC(=O)Nc2ccnc3ccccc23)n1,6.6
16,Cc1cccc(N2CCN(C(=O)NC3CCCCC3)CC2)c1C,0.7
17,CCOC(=O)C1=C(COC(=O)C2CC(=O)N(CCc3ccccc3)C2)NC(=O)NC1C (stereo not drawn),> 64.4
18,COc1ccc(-n2c(=S)[nH]c3sc(-c4ccccc4)cc3c2=O)c(OC)c1,1.7
19,O=C(NCCc1ccc(Cl)cc1)C1CCN(c2ncccn2)CC1,6.7
20,CC(C)(C)Nc1nc(Cl)nc(Nc2ccccc2)n1,2.9
21,Cc1ccc(NC(=O)COC(=O)c2cc(=O)c3ccccc3o2)c(Br)c1,> 62.4
22,CC(C)N=C(NS(=O)(=O)c1cccs1)c1ccccc1,> 46.3
23,Cc1nc(Cl)c2c(n1)NC(=O)CO2,> 29.9
24,Cc1cc(C(=O)COC(=O)c2ccco2)c(C)n1Cc1ccco1,2.5

row,Compound,solubility kinetic [µg/mL]
1,O=[N+]([O-])c1ccc(C2=CSC3=NCCN23)cc1,31.2
2,C=CCn1c(O)c(/C=C2\C=Nc3ccccc32)c(=O)[nH]c1=O,4
3,O=c1cc(NC2CCCCC2)[nH]c(=O)[nH]1,13.1
4,O=C(CSc1ccc(F)cc1)NCCc1ccc(Cl)cc1,8.6
5,Nc1nc2c([N+](=O)[O-])cccc2s1,23
6,CCN(CC(=O)Nc1c(F)cccc1F)C(=O)c1cnccn1,> 48
7,CC(NC(=O)C(C)N1C(=O)c2cccc([N+](=O)[O-])c2C1=O)c1ccccc1 (stereo not drawn),28.3
8,Cc1ccc2nc(-c3ccccc3NC(=O)CCC(=O)O)c(=O)[nH]c2c1,> 52.7
9,Cc1ccc(S(=O)(=O)N(C)C)cc1NC(=O)COC(=O)COc1ccc2c(C)cc(=O)oc2c1,> 73.3
10,Cc1ccc(C2=NOC(=O)/C2=C\c2ccc(C)o2)cc1,36.3
11,Cl.ClCCN1C2=NCCCN2c2ccccc21,> 40.8
12,C=CCn1c(SCC#N)nc2sc(CC)cc2c1=O,7
13,CC(C)c1ccc(CSc2ccc(S(=O)(=O)N3CCOCC3)cn2)cc1,1.9
14,COc1cc(/C=C/C(=O)OCC(=O)Nc2ccc3c(c2)OCO3)ccc1O,15.5
15,CC1CCN(C2=NC(=O)/C(=C/c3ccc(O)cc3)S2)CC1,3.8
16,NS(=O)(=O)c1cc([N+](=O)[O-])ccc1NCc1cccnc1,44.8
17,Cn1cccc1/C=N\NC(=O)C1COc2ccccc2O1 (stereo not drawn),> 42.8
18,Nc1ncnc(Oc2ccccc2F)c1[N+](=O)[O-],34.3
19,Cc1ccc(NC(=S)N(Cc2ccccc2)C(C)C)cc1,7.6
20,Cc1nc2ccc(NC(=O)N3CCOCC3)cc2nc1C,> 42.9
21,O=C(COc1ccc(C(=O)c2ccc(F)cc2)cc1)Nc1cccc(S(=O)(=O)N2CCOCC2)c1,4.2
22,C=C(C)c1cccc(C(C)(C)NC(=O)NCc2cccnc2)c1,> 46.4

# From PubChem BioAssay AID1996
